Laboratory results as given in US20040057976A1, “Insect bait” (priority 2002, published 2004).
Values joined by “and” are separate entries in the source; they are usually repeats but may differ in a detail not shown here. Equal entries are not always repeated. Where two headings read alike, the source gives them in different places.

Assays:
[1] = test system: white-footed ants; experiment: Two-choice, random-order preference tests on exterior walls; type: in vivo, Technomyrmex albipes
Experimental: Two commercial ready-to-use (RTU) ant baits and several sugar solutions were tested with and without active ingredients, including 10,000 ppm DOT (Uncle Albert's Super Smart Ant Bait®, A Safe Pest Eliminators, Inc., Miami, Fla.) and 10,000 ppm orthoboric acid (Drax Liquidator®, Waterbury Companies, Inc., Waterbury, Conn.). Sugar water solutions tested included: 100,000 ppm, 150,000 ppm, 200,000 ppm, 250,000 ppm, 350,000 ppm, 400,000 ppm, and 500,000 ppm sucrose (Publix Supermarkets, […] and 500,000 ppm fructose (Fisher Scientific, Pittsburgh, Pa.), 250,000 ppm maltose (Fisher Scientific). Four insect bait formulations of the invention (ND 1, ND2, ND3, ND4, see Table II) were also tested against sugars and commercial baits. […] Borax, Los Angeles, Calif.). Glass shell vials (6-ml capacity) with […] plastic caps (Fisher Scientific) were used for bait containers. Vials were modified for use as bait containers by drilling holes (6 mm) in the caps, inserting cotton dental wicks, which minimize bait desiccation and entrapment by ants, adding 4.5-ml solution, and using […]® (Pacer Technology, Rancho Cucamonga, Calif.) adhesive putty to hold the vials on the walls. Each test consisted of 5 bait vial pairs placed in 2 columns (FIG. 1). […] Nine counts of ants on each wick were taken approximately every 30 minutes over 4.5 hours. When the numbers of ants could not be counted visually, digital photographs were taken, and counts were taken from a computer display. Data were analyzed using t-Test and Mann-Whitney Rank Sum Tests at P=0.05.

[2] = test system: T. Albipes adults; details: first trial, non-forced bioassay, means of 5 replicates
Text: White-footed ants were collected from a stand of Phoenix roebelenii palms at the University of Florida Fort Lauderdale Research and Education Center (Broward Co., FL). Adult ants and brood were collected from nesting sites in palm thatch between 9 a.m. and 3 p.m., when most of the foragers are in the nests. The thatch was placed in a plastic 100-liter garbage pail through a 28-cm hole cut into the center of its lid. The upper portions of the interior sides of the pail were coated with a petroleum jelly (Vaseline® London, UK) to retard the ants' escape.
Infested thatch material was taken from the garbage pail, placed in the container, covered with 1×15-cm strips of wood and a separator sheet of 3-mm polycarbonate with 2-mm holes. Dripping water from a 2-1 tank suspended over the container forced the ants to leave the thatch and enter nesting tubes (10×75 mm clear polystyrene test tubes) (Fisher Scientific, Pittsburgh, Pa.), filled at the bottom with a small cotton ball soaked with sugar water, and completely covered with aluminum foil.
Nalgene™ reusable plastic utility boxes with lids ([…]) (Fisher Scientific, Pittsburgh, Pa.) were used to hold white-footed ant colonies for laboratory tests (FIG. 4). Nesting tubes with about 200 ants and dozens of brood were placed into each box, held in place with a small amount of Handi-Tak®. Ants were provisioned with water by placing a small cotton ball moistened with approximately 2-ml deionized water in a 41×41×8 mm plastic weighing boat.
Five holes (0.86 mm ID) were drilled into the caps. Vials were filled with 4.5 ml bait solution, inverted, and attached to the sides of the boxes with Handi-Tak® (FIG. 3). Sugar water was fed ad libitum to the ants at all times and supplemented twice weekly by live termites or canned chicken for protein. A felt pad was placed under each vial to catch errant drops and prevent ants from being entrapped in their sticky residue. Ants were allowed to acclimatize in boxes for several weeks. Each day dead ants were removed and replaced with live ants. When ant populations appeared stable, treatments were applied. No ants were added during the experiment.
Fourteen treatments (5 replicates each, assigned randomly) were applied to the ants in boxes. […] The suspension of XR-007 was placed into a plastic weighing boat (0.5 g), and replaced twice a week or when it desiccated. One corner was cut away to allow for easier access by the ants.
Both vials had felt pads under them. Boxes with gels had the gels in weighing boats. The boats were on the left side of the box, and the untreated sugar water vials were on the right side. […] This was accomplished by adding 0.17-ml to panels and distributing the solution evenly with a fine paintbrush previously saturated in solution. One-half g XR-007 and indoxacarb in honey were placed into the bulb of 9.3-ml large-tip opening transfer pipettes (having had 8-cm cut back from the tip, Samco®b, San Fernando, Calif.).
Dead ants were removed and counted daily for the first week, then twice weekly thereafter. At the end of the experiment, all ants still living were killed with ethanol and counted to determine the total number of ants in each box. […] Mean percent mortalities were analyzed by ANOVA (analysis of variance) and general linear model (SAS Institute, 1989 SAS/STAT user's guide, version 6, 4th ed. SAS Institute, Cary, N.C.) and means separated using Student-Newman-Keals test at P<0.05.
Mortality for the first trial was recorded for 51 days.

[3] = test system: T. Albipes adults; experiment: Laboratory efficacy test, second trial (non-forced bioassay, 15 treatments); type: in vivo, Technomyrmex albipes; details: means of 5 replicates
Experimental: When ant populations appeared stable, treatments were applied. No ants were added during the experiment.
Surface treatments included 1,200 ppm fipronil (Termidor®& SC), 500 ppm indoxacarb (DuPont, Wilmington, Del.), 500 ppm deltamethrin (DeltaDust®, Aventis Environmental Science), and 600 ppm lambda cyhalothrin (Demand®V CS, Syngenta Crop Protection).
Both vials had felt pads under them. Boxes with gels had the gels in weighing boats.
Mortality for the second trial was recorded for 47 days.

[4] = test 18: 25% Sucrose vs. 25% Maltose, P=0.852
[5] = test 19: 25% Sucrose vs. 25% Glucose, P=0.463
[6] = test 17: 50% Fructose vs. 50% Glucose, P=0.817

For `OC[C@H]1O[C@@](CO)(O[C@H]2O[C@H](CO)[C@@H](O)[C@H](O)[C@H]2O)[C@@H](O)[C@@H]1O` [sucrose], the “preference in binary choice test (counts of ants on wicks)” value (shortened to “preference in binary choice test”) ([1]; test 1: 10% Sucrose vs. water, P<0.001) was “highly preferred”, the “preference in binary choice test” value ([1]; test 3: 25% Sucrose vs. 10% Sucrose, P<0.05) was “preferred” and the “preference in binary choice test” value ([1]; test 4: 25% Sucrose vs. 25% Fructose, P<0.001) was “preferred”. For the same compound, the “preference in binary choice test” value ([1]; test 5: 25% Sucrose vs. 15% Sucrose, P<0.05) was “preferred”, the “preference in binary choice test” value ([1]; test 6: 25% Sucrose vs. 20% Sucrose, P<0.05) was “preferred” and the “preference in binary choice test” value ([1]; test 7: 40% Sucrose vs. ND1, P=0.002) was “preferred”. For the same compound, the “preference in binary choice test” value ([1]; test 13: 25% Sucrose vs. Uncle Albert's Super Smart Ant Bait (no active ingredient), P=0.458) was “no significant preferences”, the “preference in binary choice test” value ([1]; test 15: 25% Sucrose vs. 50% Sucrose, P=0.112) was “no significant preference” and the “preference in binary choice test” value [1, 4] was “no significant preferences”. The “preference in binary choice test” value [1, 5] was “no significant preferences”.

`O=C[C@H](O)[C@@H](O)[C@H](O)[C@H](O)CO` [glucose] was tested, and the “preference in binary choice test” value [1, 6] was “no significant preferences” and the “preference in binary choice test” value [1, 5] was “no significant preferences”.

For `O=[N+]([O-])NC1=NCCN1Cc1ccc(Cl)nc1` [Imidacloprid], the “Mean percent Mortality (+/SD) of T. Albipes adults” value (“Mean percent Mortality (+/SD)” for short) ([2]; 1 day exposure) was 5% and 4.92 ± 4.02ab %, the “Mean percent Mortality (+/SD)” value ([2]; 7 days exposure) was 29.84 ± 10.63bc % and the “Mean percent Mortality (+/SD)” value ([2]; 7 days exposure, listed as Irnidacloprid) was 30%. For the same compound, the “Mean percent Mortality (+/SD)” value ([2]; 30 days exposure) was 79% and 78.55 ± 4.83a % and the “Mean percent Mortality (+/SD)” value ([2]; 51 days exposure) was 91% and 90.86 ± 5.43a %.

For `COC(=O)N(C(=O)N1CO[C@@]2(C(=O)OC)Cc3cc(Cl)ccc3C2=N1)c1ccc(OC(F)(F)F)cc1` [DPX surface, indoxacarb], the “Mean % mortality (+/SD) of T. albipes adults” value (“Mean % mortality (+/SD)” below) ([3]; 1 day exposure) was 2.19 ± 2.42bcd %, the “Mean % mortality (+/SD)” value ([3]; 2 days exposure) was 2.56 ± 2.51c % and the “Mean % mortality (+/SD)” value ([3]; 8 days exposure) was 5.61 ± 4.96c %. The “Mean % mortality (+/SD)” value ([3]; 29 days exposure) was 16.59 ± 12.72de % and the “Mean % mortality (+/SD)” value ([3]; 47 days exposure) was 27.87 ± 14.59e %.

In the case of `O=C(CO)[C@@H](O)[C@H](O)[C@H](O)CO` [fructose], the “preference in binary choice test” value ([1]; test 2: 25% Fructose vs. 25% Maltose, P=0.033) was “preferred”, the “preference in binary choice test” value ([1]; test 14: 25% Fructose vs. Drax Liquidator (no active ingredient), P=0.580) was “no significant preferences” and the “preference in binary choice test” value ([1]; test 16: 25% Fructose vs. Uncle Albert's Super Smart Ant Bait (no active ingredient), P 0.057) was “no significant preferences”. For the same compound, the “preference in binary choice test” value [1, 6] was “no significant preferences”.

For spinosad, the “Mean percent Mortality (+/SD)” value ([2]; 1 day exposure) was 1.01 ± 0.87b %, the “Mean percent Mortality (+/SD)” value ([2]; 3 days exposure) was 2.02 ± 0.83d % and the “Mean percent Mortality (+/SD)” value ([2]; 7 days exposure) was 3.78 ± 1.85e %. For the same compound, the “Mean percent Mortality (+/SD)” value ([2]; 30 days exposure) was 16.15 ± 3.78c % and the “Mean percent Mortality (+/SD)” value ([2]; 51 days exposure) was 34.51 ± 2.42cd %.

With `OC[C@H]1O[C@H](O[C@H]2[C@H](O)[C@@H](O)C(O)O[C@@H]2CO)[C@H](O)[C@@H](O)[C@@H]1O` (mixture of isomers) [maltose] the “preference in binary choice test” value [1, 4] was “no significant preferences”.

For `N#Cc1nn(-c2c(Cl)cc(C(F)(F)F)cc2Cl)c(N)c1[S+]([O-])C(F)(F)F` (stereo not drawn) [Fipronil, fipronil], the “Mean percent Mortality (+/SD)” value ([2]; 1 day exposure) was 0.98 ± 0.70b %, the “Mean percent Mortality (+/SD)” value ([2]; 3 days exposure) was 3.46 ± 1.38cd % and the “Mean percent Mortality (+/SD)” value ([2]; 7 days exposure) was 6.76 ± 2.25e %. For the same compound, the “Mean percent Mortality (+/SD)” value ([2]; 30 days exposure) was 27.88 ± 5.89bc % and the “Mean percent Mortality (+/SD)” value ([2]; 51 days exposure) was 53.76 ± 10.84b %.

With `CN1COCN(Cc2cnc(Cl)s2)/C1=N\[N+](=O)[O-]` [Thiamethoxam 10 ppm, Thiamethoxam] the “Mean percent Mortality (+/SD)” value ([2]; 1 day exposure) was 4% and 4.44 ± 2.26ab %, the “Mean percent Mortality (+/SD)” value ([2]; 1 day exposure, listed as Thiamethoxam 1 ppm) was 1.66 ± 1.17b % and the “Mean percent Mortality (+/SD)” value ([2]; 3 days exposure) was 18.33 ± 8.49b %. The “Mean percent Mortality (+/SD)” value ([2]; 3 days exposure, listed as Thiamethoxam 1 ppm) was 3.64 ± 2.80cd %, the “Mean percent Mortality (+/SD)” value ([2]; 7 days exposure) was 39% and 38.81 ± 11.13b % and the “Mean percent Mortality (+/SD)” value ([2]; 7 days exposure, listed as Thiamethoxam 1 ppm) was 6.44 ± 4.73e %. The “Mean percent Mortality (+/SD)” value ([2]; 30 days exposure) was 65% and 64.77 ± 15.51a %, the “Mean percent Mortality (+/SD)” value ([2]; 30 days exposure, listed as Thiamethoxam 1 ppm) was 19.73 ± 9.98c % and the “Mean percent Mortality (+/SD)” value ([2]; 51 days exposure) was 84% and 84.40 ± 10.09a %. The “Mean percent Mortality (+/SD)” value ([2]; 51 days exposure, listed as Thiamethoxam 1 ppm) was 44.02 ± 13.73bcd %.

With `O.O.O.O.O=BOB1OB(OB=O)OB2OB([O-])OB([O-])OB(O1)O2.[Na+].[Na+]` [DOT, disodium octaborate tetrahydrate] the “preference in binary choice test” value ([1]; tests 24-30: 25% Sucrose vs. 25% Sucrose + 1% to 7% DOT in 1% increments, P=0.218 to 0.916) was “no observed preferences”.
